“And” between values parts separate entries of the source, which are not always exact repeats. Identical values can stand only once.
How the values were obtained:
FES^WT = target: T1, FES^WT (Homo sapiens, UniProt P07332); experiment: In vitro TR-FRET kinase assay; type: biochemical; conditions: for IC50: TR-FRET assay, 5 µM ATP, n = 3, read-out: pIC50 FES^WT (converted); for Residual activity (%): FES WT, mean, n=3
T1 construct: human FES cDNA encoding residues 448–822 or human FER cDNA encoding residues 448–820 was amplified by PCR; made in house; host or cells: E. coli BL21(DE3), co-expressing YopH phosphatase
Method: All measurements were performed in triplicate.

FER^WT = FER^WT (Homo sapiens, UniProt P16591); experiment: In vitro TR-FRET kinase assay
[1] = tested on: FES^S700C HL-60 neutrophils; experiment: Phagocytosis assay with GFP-expressing E. coli; type: cell-based, human; conditions: for Phagocytic index: Figure 7i, replicates
Method: HL-60 cells were differentiated to neutrophils as described above. Cells were counted and centrifuged (200g, 5 min), followed by resuspension in growth medium without antibiotics. Cells were incubated with vehicle or inhibitor (from 1000x concentrated stocks in DMSO) for 1 h at 37 °C prior to infection (1×10^6 cells in 900 µL in 12-well plate). Meanwhile, E. coli B834(DE3) constitutively expressing GFP^A206K were grown in LB medium to an OD600 of 0.4–1.0, after which bacteria were centrifuged (2000g, 5 min), washed and resuspended in PBS to appropriate density. Neutrophils were infected by addition of bacteria at multiplicity of infection (MOI) of 30 unless stated otherwise. Cells were then incubated for 1 h at 37 °C unless stated otherwise, after which cells were resuspended and transferred to Eppendorf tubes, washed in FACS buffer (1 mL, 500g, 3 min) and fixed in 1% PFA in PBS (15 min, 4 °C, in the dark). Samples were further processed as described above.
Events (generally 20,000 per condition) were gated by forward and side scatter (cells), side scatter area (singlets) and the percentage of GFP-positive cells and GFP mean fluorescence intensity (MFI) were determined based on background fluorescence for non-infected cells. The GREEN-B channel (525/30 filter) was used to detect GFP.

T1 sequence (P07332 448-822): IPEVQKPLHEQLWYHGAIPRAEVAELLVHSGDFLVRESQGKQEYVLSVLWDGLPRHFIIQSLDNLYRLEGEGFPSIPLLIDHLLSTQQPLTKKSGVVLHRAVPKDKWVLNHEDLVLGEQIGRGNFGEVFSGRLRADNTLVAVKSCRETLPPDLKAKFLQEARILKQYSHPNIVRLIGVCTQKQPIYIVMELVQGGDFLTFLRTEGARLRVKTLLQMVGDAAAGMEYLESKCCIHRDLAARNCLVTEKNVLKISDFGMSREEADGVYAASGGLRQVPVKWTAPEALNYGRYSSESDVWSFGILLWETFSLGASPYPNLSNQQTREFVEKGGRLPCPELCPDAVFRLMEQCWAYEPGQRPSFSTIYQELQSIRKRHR
Sequence of FER^WT (P16591 448-820): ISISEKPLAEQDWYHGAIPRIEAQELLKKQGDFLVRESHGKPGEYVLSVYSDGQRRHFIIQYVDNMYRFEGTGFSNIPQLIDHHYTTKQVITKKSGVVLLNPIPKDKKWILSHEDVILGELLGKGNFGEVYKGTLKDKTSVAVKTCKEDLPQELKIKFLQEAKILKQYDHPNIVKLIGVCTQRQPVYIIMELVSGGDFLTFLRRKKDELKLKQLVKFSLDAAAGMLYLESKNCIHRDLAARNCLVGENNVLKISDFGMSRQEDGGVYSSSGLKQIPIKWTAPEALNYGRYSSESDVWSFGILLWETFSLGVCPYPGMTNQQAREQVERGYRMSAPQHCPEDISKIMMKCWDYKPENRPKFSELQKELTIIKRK

With `Nc1ncnc2c1ncn2[C@@H]1O[C@H](COP(=O)(O)OP(=O)(O)OP(=O)(O)O)[C@@H](O)[C@H]1O` [ATP] the Km (FES^WT; FES^WT, TR-FRET, 60 min, read-out: ATP KM) was 1.9 µM and the Km (FER^WT; read-out: ATP KM, FER^WT) was 11 µM.
In the case of `COc1ccccc1Nc1ncc(Cl)c(Nc2ccccc2S(=O)(=O)C(C)C)n1` [Compound 2], the IC50 (FES^WT) is reported as 50.1 nM and the IC50 (FER^WT) is reported as 5.01 nM.
Molecule `C=CC(=O)Nc1ccccc1Nc1nc(Nc2ccccc2OC)ncc1Cl` [Compound 4] has an IC50 (FES^WT) of 2000 nM and an IC50 (FER^WT) of 200 nM.
Work on `CCC(=O)Nc1ccccc1Nc1nc(Nc2ccccc2OC)ncc1Cl` [Compound 5] yielded an IC50 (FES^WT) greater than 10000 nM and an IC50 (FER^WT) of 126 nM.
`COc1cc(Nc2ncc(F)c(Nc3ccc4c(n3)NC(=O)C(C)(C)O4)n2)cc(OC)c1OC` [Compound R406, R406] was tested, and the Phagocytic index [1] was 212.415 and 224.559 and 218.427 and 271.225 and 264.489 and the Phagocytosis ([1]; R406 1 µM) was “reduced phagocytosis to similar levels as observed for WEL028”.
For `COc1ccc2c(c1)CC[C@@H]1[C@@H]2CC[C@]2(C)[C@@H](NCCCCCCN3C(=O)C=CC3=O)CC[C@@H]12` [Compound U-73122, U-73122], the Phagocytic index [1] was 64.8265 and 82.4025 and 81.0921 and 67.7147 and 64.5235.
In the case of `COc1ccccc1Nc1ncc(Cl)c(Nc2ccccc2S(=O)(=O)C(C)C)n1` [Supplementary Figure 1c], the “Residual activity (%)” value (FES^WT; log[inhibitor] (M) = -5) is reported as 3.135%, the “Residual activity (%)” value (FES^WT; log[inhibitor] (M) = -5.52288) is reported as 1.274% and the “Residual activity (%)” value (FES^WT; log[inhibitor] (M) = -6) is reported as 0.9673%. The “Residual activity (%)” value (FES^WT; log[inhibitor] (M) = -6.52288) was 3.912%, the “Residual activity (%)” value (FES^WT; log[inhibitor] (M) = -7) was 25.313% and the “Residual activity (%)” value (FES^WT; log[inhibitor] (M) = -7.52288) was 69.4661%. For the same molecule, the “Residual activity (%)” value (FES^WT; log[inhibitor] (M) = -8) was 80.7219%, the “Residual activity (%)” value (FES^WT; log[inhibitor] (M) = -8.52288) was 93.5112% and the “Residual activity (%)” value (FES^WT; log[inhibitor] (M) = -9) was 92.1668%. For the same molecule, the “Residual activity (%)” value (FES^WT; log[inhibitor] (M) = -9.52288) was 93.0906%, the “Residual activity (%)” value (FES^WT; log[inhibitor] (M) = -10) was 84.5762% and the “Residual activity (%)” value (FES^WT; log[inhibitor] (M) = -10.5229) was 85.1733%. The “Residual activity (%)” value (FES^WT; log[inhibitor] (M) = -11) was 101.85%.
With `C=CC(=O)Nc1cccc(Nc2nc(Nc3ccccc3OC)ncc2Cl)c1` [Supplementary Figure 1d] the “Residual activity (%)” value (FES^WT; log[inhibitor] (M) = -5) was 32.3982%, the “Residual activity (%)” value (FES^WT; log[inhibitor] (M) = -5.52288) was 40.0335% and the “Residual activity (%)” value (FES^WT; log[inhibitor] (M) = -6) was 62.9411%. For the same molecule, the “Residual activity (%)” value (FES^WT; log[inhibitor] (M) = -6.52288) was 63.4299%, the “Residual activity (%)” value (FES^WT; log[inhibitor] (M) = -7) was 90.1255% and the “Residual activity (%)” value (FES^WT; log[inhibitor] (M) = -7.52288) was 87.1043%. The “Residual activity (%)” value (FES^WT; log[inhibitor] (M) = -8) was 96.4271%, the “Residual activity (%)” value (FES^WT; log[inhibitor] (M) = -8.52288) was 92.3122% and the “Residual activity (%)” value (FES^WT; log[inhibitor] (M) = -9) was 101.396%. The “Residual activity (%)” value (FES^WT; log[inhibitor] (M) = -9.52288) was 120.198%, the “Residual activity (%)” value (FES^WT; log[inhibitor] (M) = -10.5229) was 97.4644% and the “Residual activity (%)” value (FES^WT; log[inhibitor] (M) = -11) was 93.0274%.
`C=CC(=O)Nc1ccccc1Nc1nc(Nc2ccccc2OC)ncc1Cl` [Supplementary Figure 1e] was tested, and the “Residual activity (%)” value (FES^WT; log[inhibitor] (M) = -5) was 4.602%, the “Residual activity (%)” value (FES^WT; log[inhibitor] (M) = -5.52288) was 7.942% and the “Residual activity (%)” value (FES^WT; log[inhibitor] (M) = -6) was 20.2502%. The “Residual activity (%)” value (FES^WT; log[inhibitor] (M) = -6.52288) was 52.3925%, the “Residual activity (%)” value (FES^WT; log[inhibitor] (M) = -7) was 77.2757% and the “Residual activity (%)” value (FES^WT; log[inhibitor] (M) = -7.52288) was 90.9565%. The “Residual activity (%)” value (FES^WT; log[inhibitor] (M) = -8) was 93.9799%, the “Residual activity (%)” value (FES^WT; log[inhibitor] (M) = -8.52288) was 103.383% and the “Residual activity (%)” value (FES^WT; log[inhibitor] (M) = -9) was 97.8768%. The “Residual activity (%)” value (FES^WT; log[inhibitor] (M) = -9.52288) was 97.6076%, the “Residual activity (%)” value (FES^WT; log[inhibitor] (M) = -10) was 100% and the “Residual activity (%)” value (FES^WT; log[inhibitor] (M) = -10.5229) was 116.125%.
With `COc1ccccc1Nc1ncc(Cl)c(Nc2ccccc2S(=O)(=O)C(C)C)n1` [Supplementary Figure 8c] the “Residual activity (%) WT Mean” value (FER^WT; log[inhibitor] (M) -5) was 0.06517%, the “Residual activity (%) WT Mean” value (FER^WT; log[inhibitor] (M) -5.52288) was 0.1492% and the “Residual activity (%) WT Mean” value (FER^WT; log[inhibitor] (M) -6) was -0.06836%. The “Residual activity (%) WT Mean” value (FER^WT; log[inhibitor] (M) -6.52288) was 0.8273%, the “Residual activity (%) WT Mean” value (FER^WT; log[inhibitor] (M) -7) was 4.343% and the “Residual activity (%) WT Mean” value (FER^WT; log[inhibitor] (M) -7.52288) was 12.0728%. The “Residual activity (%) WT Mean” value (FER^WT; log[inhibitor] (M) -8) was 31.4398%, the “Residual activity (%) WT Mean” value (FER^WT; log[inhibitor] (M) -8.52288) was 59.2785% and the “Residual activity (%) WT Mean” value (FER^WT; log[inhibitor] (M) -9) was 83.3824%. For the same molecule, the “Residual activity (%) WT Mean” value (FER^WT; log[inhibitor] (M) -9.52288) was 101.278%, the “Residual activity (%) WT Mean” value (FER^WT; log[inhibitor] (M) -10) was 106.348% and the “Residual activity (%) WT Mean” value (FER^WT; log[inhibitor] (M) -10.5229) was 105.352%. For the same molecule, the “Residual activity (%) WT Mean” value (FER^WT; log[inhibitor] (M) -11) was 108.85%.
For `C=CC(=O)Nc1ccccc1Nc1nc(Nc2ccccc2OC)ncc1Cl` [Supplementary Figure 8d], the “Residual activity (%) WT Mean” value (FER^WT; log[inhibitor] (M) -5) was 4.829%, the “Residual activity (%) WT Mean” value (FER^WT; log[inhibitor] (M) -5.52288) was 6.417% and the “Residual activity (%) WT Mean” value (FER^WT; log[inhibitor] (M) -6) was 19.305%. For the same molecule, the “Residual activity (%) WT Mean” value (FER^WT; log[inhibitor] (M) -6.52288) was 38.3519%, the “Residual activity (%) WT Mean” value (FER^WT; log[inhibitor] (M) -7) was 71.19% and the “Residual activity (%) WT Mean” value (FER^WT; log[inhibitor] (M) -7.52288) was 87.6084%. For the same molecule, the “Residual activity (%) WT Mean” value (FER^WT; log[inhibitor] (M) -8) was 99.295%, the “Residual activity (%) WT Mean” value (FER^WT; log[inhibitor] (M) -8.52288) was 98.6881% and the “Residual activity (%) WT Mean” value (FER^WT; log[inhibitor] (M) -9) was 106.616%. The “Residual activity (%) WT Mean” value (FER^WT; log[inhibitor] (M) -9.52288) was 102.334%, the “Residual activity (%) WT Mean” value (FER^WT; log[inhibitor] (M) -10) was 107.184% and the “Residual activity (%) WT Mean” value (FER^WT; log[inhibitor] (M) -10.5229) was 102.376%. The “Residual activity (%) WT Mean” value (FER^WT; log[inhibitor] (M) -11) was 116.944%.
`CCC(=O)Nc1ccccc1Nc1nc(Nc2ccccc2OC)ncc1Cl` [Supplementary Figure 8e] was tested, and the “Residual activity (%) WT Mean” value (FER^WT; log[inhibitor] (M) -5) was 15.6173%, the “Residual activity (%) WT Mean” value (FER^WT; log[inhibitor] (M) -5.52288) was 11.558% and the “Residual activity (%) WT Mean” value (FER^WT; log[inhibitor] (M) -6) was 19.5081%. For the same molecule, the “Residual activity (%) WT Mean” value (FER^WT; log[inhibitor] (M) -6.52288) was 74.3812%, the “Residual activity (%) WT Mean” value (FER^WT; log[inhibitor] (M) -7) was 96.1324% and the “Residual activity (%) WT Mean” value (FER^WT; log[inhibitor] (M) -7.52288) was 93.3601%. For the same molecule, the “Residual activity (%) WT Mean” value (FER^WT; log[inhibitor] (M) -8) was 104.761%, the “Residual activity (%) WT Mean” value (FER^WT; log[inhibitor] (M) -8.52288) was 92.7732% and the “Residual activity (%) WT Mean” value (FER^WT; log[inhibitor] (M) -9) was 106.725%. The “Residual activity (%) WT Mean” value (FER^WT; log[inhibitor] (M) -9.52288) was 98.2336%, the “Residual activity (%) WT Mean” value (FER^WT; log[inhibitor] (M) -10) was 113.972% and the “Residual activity (%) WT Mean” value (FER^WT; log[inhibitor] (M) -10.5229) was 97.8463%. For the same molecule, the “Residual activity (%) WT Mean” value (FER^WT; log[inhibitor] (M) -11) was 108.607%.
For `C#CCOc1ccc(Nc2ncc(Cl)c(Nc3ccccc3NC(=O)C=C)n2)c(OC)c1` [Supplementary Figure 8f], the “Residual activity (%) WT Mean” value (FER^WT; log[inhibitor] (M) -5) was 5.2329%, the “Residual activity (%) WT Mean” value (FER^WT; log[inhibitor] (M) -5.52288) was 3.792% and the “Residual activity (%) WT Mean” value (FER^WT; log[inhibitor] (M) -6) was 14.1153%. For the same molecule, the “Residual activity (%) WT Mean” value (FER^WT; log[inhibitor] (M) -6.52288) was 25.7365%, the “Residual activity (%) WT Mean” value (FER^WT; log[inhibitor] (M) -7) was 62.4124% and the “Residual activity (%) WT Mean” value (FER^WT; log[inhibitor] (M) -7.52288) was 74.9371%. The “Residual activity (%) WT Mean” value (FER^WT; log[inhibitor] (M) -8) was 97.3541%, the “Residual activity (%) WT Mean” value (FER^WT; log[inhibitor] (M) -8.52288) was 92.3988% and the “Residual activity (%) WT Mean” value (FER^WT; log[inhibitor] (M) -9) was 107.069%. The “Residual activity (%) WT Mean” value (FER^WT; log[inhibitor] (M) -9.52288) was 97.7799%, the “Residual activity (%) WT Mean” value (FER^WT; log[inhibitor] (M) -10) was 105.81% and the “Residual activity (%) WT Mean” value (FER^WT; log[inhibitor] (M) -10.5229) was 90.1497%. For the same molecule, the “Residual activity (%) WT Mean” value (FER^WT; log[inhibitor] (M) -11) was 111.768%.

— publication PMC7316778 (Nature Communications, 2020)
